The record followed here is ChEMBL document CHEMBL4673388, “Enhancing Antimicrobial Peptide Potency through Multivalent Presentation on Coiled-Coil Nanofibrils” (ACS Med Chem Lett, 2021).

By MIC is commonly meant the lowest concentration found to suppress growth.

For data set [1], the system named is Staphylococcus aureus. In words: Antibacterial activity against methicillin-resistant Staphylococcus aureus ATCC 43300 assessed as inhibition of bacterial growth incubated for 16 to 20 hrs by microdilution method. The format is functional. To be noted: time 16-20 hrs. For orientation: Dilution methods test growth across graded concentrations, often in twofold steps.

Data set [2] has as its system MCF7. Kind of data set: Cytotoxicity against human MCF7 cells up to 90 ug/ml measured after 48 hrs by CCK8 assay. Type of data set: cell-based. To be noted: mcf7, 48 h, dose <=90 µg/ml. Background: Tetrazolium assays rely on reduction of a dye to a coloured formazan, in cell work by metabolically active cells.
Data set [3] concerns Staphylococcus aureus. In words: Bactericidal activity against methicillin-resistant Staphylococcus aureus ATCC 43300 assessed as reduction in bacterial growth at MIC compound conjugated on alpha-helical coiled-coil FF03 peptide measured within 5 hrs by time kill assay. The note with it: time hrs <=5. Type of data set: functional, organism-based.
The subject of data set [4] is Escherichia coli. Kind of data set: Antibacterial activity against Escherichia coli ATCC 25922 assessed as inhibition of bacterial growth incubated for 16 to 20 hrs compound conjugated on alpha-helical coiled-coil FF03 peptide by microdilution method. The format is functional. To be noted: time 16-20 hrs.
Data set [5] can be described thus: Hemolytic activity in human red blood cells at 100 ug/ml incubated for 45 mins. To be noted: red blood cells (erythrocytes), at 100 µg/mL, read-out: Activity. Type of data set: ADME, cell-based, Erythrocyte.
The subject of data set [6] is HEK293. Kind of data set: Cytotoxicity against human HEK293 cells up to 90 ug/ml measured after 48 hrs compound conjugated on alpha-helical coiled-coil FF03 peptide by CCK8 assay. The format is cell-based. The note with it: hek293, 48 h, dose <=90 µg/ml.
Data set [7] is described as follows: Hemolytic activity in human red blood cells at 100 ug/ml incubated for 45 mins compound conjugated on alpha-helical colied-coil FF03 peptide. Type of data set: ADME, cell-based, Erythrocyte. The note with it: red blood cells (erythrocytes), at 100 µg/mL, read-out: Activity.
Data set [8] has as its system MCF7. In words: Cytotoxicity against human MCF7 cells up to 90 ug/ml measured after 48 hrs compound conjugated on alpha-helical coiled-coil FF03 peptide by CCK8 assay. Type of data set: cell-based. The note with it: mcf7, 48 h, dose <=90 µg/ml.
Data set [9] concerns Cell membrane. Kind of data set: Disruption of cell membrane in methicillin-resistant Staphylococcus aureus ATCC 43300 assessed as complete rupture of bacterial cell surface at 9 ug/ml incubated for 3 hrs by scanning electron microscopy. Type of data set: subcellular. The note with it: dose 9.0 µg/ml.
Data set [10] has as its system Pseudomonas aeruginosa. Kind of data set: Antibacterial activity against Pseudomonas aeruginosa ATCC 15442 assessed as inhibition of bacterial growth incubated for 16 to 20 hrs by microdilution method. Type of data set: functional. The note with it: time 16-20 hrs.
The test system of data set [11] is Staphylococcus aureus. In words: Bactericidal activity against methicillin-resistant Staphylococcus aureus ATCC 43300 assessed as reduction in bacterial growth at MIC measured for 25 hrs by time kill assay. Type of data set: functional, organism-based.
Data set [12] relates to Staphylococcus aureus. In words: Antibacterial activity against Staphylococcus aureus ATCC 25923 assessed as inhibition of bacterial growth incubated for 16 to 20 hrs compound conjugated on alpha-helical coiled-coil FF03 peptide by microdilution method. The format is functional. The note with it: time 16-20 hrs.
Data set [13] concerns Staphylococcus aureus. In words: Antibacterial activity against Staphylococcus aureus ATCC 25923 assessed as inhibition of bacterial growth incubated for 16 to 20 hrs by microdilution method. The format is functional. To be noted: time 16-20 hrs.
The subject of data set [14] is Staphylococcus aureus. In words: Antibacterial activity against methicillin-resistant Staphylococcus aureus ATCC 43300 assessed as inhibition of bacterial growth incubated for 16 to 20 hrs compound conjugated on alpha-helical coiled-coil FF03 peptide by microdilution method. To be noted: time 16-20 hrs. The format is functional.
Data set [15] has as its system HEK293. Kind of data set: Cytotoxicity against human HEK293 cells up to 90 ug/ml measured after 48 hrs by CCK8 assay. Type of data set: cell-based. To be noted: hek293, 48 h, dose <=90 µg/ml.
The test system of data set [16] is Pseudomonas aeruginosa. Kind of data set: Antibacterial activity against Pseudomonas aeruginosa ATCC 15442 assessed as inhibition of bacterial growth incubated for 16 to 20 hrs compound conjugated on alpha-helical coiled-coil FF03 peptide by microdilution method. The format is functional. The note with it: time 16-20 hrs.
For data set [17], the system named is Escherichia coli. Kind of data set: Antibacterial activity against Escherichia coli ATCC 25922 assessed as inhibition of bacterial growth incubated for 16 to 20 hrs by microdilution method. To be noted: time 16-20 hrs. The format is functional.

≈ marks a conversion by molar mass, not a printed value. Calls of active or inactive are those of the source. No cut-off for these calls is given here. Residues, ends and D or L forms follow the SMILES beside them.

For `CC(C)C[C@H](NC(=O)[C@@H](N)CCCNC(=N)N)C(=O)N1CCC[C@H]1C(=O)N[C@@H](Cc1c[nH]c2ccccc12)C(=O)N[C@@H](CCCNC(=N)N)C(=O)N[C@@H](Cc1c[nH]c2ccccc12)C(=O)N1CCC[C@H]1C(=O)N[C@@H](CCCNC(=N)N)C(=O)N[C@@H](CCCNC(=N)N)C(=O)N1CCC[C@H]1C(=O)N[C@@H](Cc1c[nH]c2ccccc12)C(=O)N[C@@H](CCCNC(=N)N)C(=O)N[C@@H](CCCNC(=N)N)C(=O)O` (H-RLPWRWPRRPWRR-OH), the MIC in data set [1] was determined as 130 µM (≈ 250 µg/mL); in data set [4], 2.34 µM (≈ 4.49 µg/mL); in [10], 65.2 µM (≈ 125 µg/mL); in [12], 0.97 µM (≈ 1.86 µg/mL); in [13], 65.2 µM (≈ 125 µg/mL); in data set [14], 1.75 µM (≈ 3.36 µg/mL). Also, the MIC was 1.36 µM (≈ 2.61 µg/mL) in data set [16] and 130 µM (≈ 250 µg/mL) in data set [17]. Also, the Activity entry in [2], in [6], in data set [8] and in [15] was “Non-Toxic” throughout. For the same compound, the outcome in data set [3], in data set [9] and in data set [11] was Active. Moreover, the hemolysis at 0.75 h, 100 ug/ml in [5] and in data set [7] was less than 15% each time.

On to `CC[C@H]1OC(=O)[C@H](C)[C@@H](O[C@H]2C[C@@](C)(OC)[C@@H](O)[C@H](C)O2)[C@H](C)[C@@H](O[C@@H]2O[C@H](C)C[C@H](N(C)C)[C@H]2O)[C@](C)(O)C[C@@H](C)C(=O)[C@H](C)[C@@H](O)[C@]1(C)O` [ERYTHROMYCIN], for which the MIC in data set [1] is greater than 128 µM.

For the compound `NC[C@H]1O[C@H](O[C@H]2[C@H](O)[C@@H](O[C@H]3O[C@H](CO)[C@@H](O)[C@H](N)[C@H]3O)[C@H](N)C[C@@H]2N)[C@H](O)[C@@H](O)[C@@H]1O` [KANAMYCIN], the MIC in [1] is greater than 128 µM.

On to `CC(=O)NC[C@H]1CN(c2ccc(N3CCOCC3)c(F)c2)C(=O)O1` [LINEZOLID], for which the minimum inhibitory concentration (MIC) in [1] came out at 4 µM (≈ 1.35 µg/mL); in [13], 1.5 µM (≈ 0.506 µg/mL).

`COc1cc(Cc2cnc(N)nc2N)cc(OC)c1OC` [TRIMETHOPRIM]: the MIC in data set [1] was 2 µM (≈ 0.581 µg/mL).

For the compound `CN[C@H](CC(C)C)C(=O)N[C@H]1C(=O)N[C@@H](CC(N)=O)C(=O)N[C@H]2C(=O)N[C@H]3C(=O)N[C@H](C(=O)N[C@H](C(=O)O)c4cc(O)cc(O)c4-c4cc3ccc4O)[C@H](O)c3ccc(c(Cl)c3)Oc3cc2cc(c3O[C@@H]2O[C@H](CO)[C@@H](O)[C@H](O)[C@H]2O[C@H]2C[C@](C)(N)[C@H](O)[C@H](C)O2)Oc2ccc(cc2Cl)[C@H]1O` [VANCOMYCIN], the MIC in data set [1] worked out at 0.5 µM (≈ 0.725 µg/mL); in data set [13] it was 1.38 µM (≈ 2 µg/mL).

Take GENTAMICIN: the MIC in [10] was 1.63 µM.
